These results are taken from ChEMBL document CHEMBL3046000, “Design and synthesis of 1-(benzothiazol-5-yl)-1H-1,2,4-triazol-5-ones as protoporphyrinogen oxidase inhibitors” (Bioorg Med Chem, 2013).

The test system of test [1] is Chenopodium album. Briefly: Post-emergence herbicidal activity against Chenopodium album seedlings assessed as plant growth inhibition at 75 g ai/ha measured 15 days after compound treatment under greenhouse conditions. Conditions: 360 h, read-out: GI. The format is functional.
In test [2] the test system is Chenopodium album. Put plainly: Post-emergence herbicidal activity against Chenopodium album seedlings assessed as plant growth inhibition at 37.5 g ai/ha measured 15 days after compound treatment under greenhouse conditions. The format is functional. The following applies: 360 h, read-out: GI.
The subject of test [3] is Chenopodium album. Put plainly: Post-emergence herbicidal activity against Chenopodium album seedlings assessed as plant growth inhibition at 150 g ai/ha measured 15 days after compound treatment under greenhouse conditions. The format is functional. The following applies: 360 h, read-out: GI.
In test [4] the test system is Amaranthus retroflexus. Put plainly: Post emergence herbicidal activity against Amaranthus retroflexus seedlings assessed as plant growth inhibition at 75 g ai/ha measured 15 days after compound treatment under greenhouse conditions. The format is functional. Conditions: 360 h, read-out: GI.
The subject of test [5] is Amaranthus retroflexus. Put plainly: Post emergence herbicidal activity against Amaranthus retroflexus seedlings assessed as plant growth inhibition at 37.5 g ai/ha measured 15 days after compound treatment under greenhouse conditions. The format is functional. The following applies: 360 h, read-out: GI.
The subject of test [6] is Amaranthus retroflexus. Briefly: Post emergence herbicidal activity against Amaranthus retroflexus seedlings assessed as plant growth inhibition at 150 g ai/ha measured 15 days after compound treatment under greenhouse conditions. The format is functional. The following applies: 360 h, read-out: GI.
Test [7] relates to Brassica juncea. Briefly: Post-emergence herbicidal activity against Brassica juncea seedlings assessed as plant growth inhibition at 75 g ai/ha measured 15 days after compound treatment under greenhouse conditions. The format is functional. The following applies: 360 h, read-out: GI.
In test [8] the test system is Brassica juncea. Put plainly: Post-emergence herbicidal activity against Brassica juncea seedlings assessed as plant growth inhibition at 37.5 g ai/ha measured 15 days after compound treatment under greenhouse conditions. The format is functional. Conditions: 360 h, read-out: GI.
In test [9] the test system is Brassica juncea. Briefly: Post-emergence herbicidal activity against Brassica juncea seedlings assessed as plant growth inhibition at 150 g ai/ha measured 15 days after compound treatment under greenhouse conditions. The format is functional. The following applies: 360 h, read-out: GI.
The test system of test [10] is Setaria faberi. Put plainly: Post-emergence herbicidal activity against Setaria faberi (Giant Foxtail) seedlings assessed as plant growth inhibition at 75 g ai/ha measured 15 days after compound treatment under greenhouse conditions. Conditions: 360 h, read-out: GI. The format is functional.
In test [11] the test system is Setaria faberi. Put plainly: Post-emergence herbicidal activity against Setaria faberi (Giant Foxtail) seedlings assessed as plant growth inhibition at 37.5 g ai/ha measured 15 days after compound treatment under greenhouse conditions. Conditions: 360 h, read-out: GI. The format is functional.
Test [12] has as its system Setaria faberi. Put plainly: Post-emergence herbicidal activity against Setaria faberi (Giant Foxtail) seedlings assessed as plant growth inhibition at 150 g ai/ha measured 15 days after compound treatment under greenhouse conditions. The format is functional. The following applies: 360 h, read-out: GI.
Test [13] concerns Digitaria sanguinalis. Put plainly: Post-emergence herbicidal activity against Digitaria sanguinalis (hairy crabgrass) seedlings assessed as plant growth inhibition at 75 g ai/ha measured 15 days after compound treatment under greenhouse conditions. The following applies: 360 h, read-out: GI. The format is functional.
Test [14] has as its system Digitaria sanguinalis. Briefly: Post-emergence herbicidal activity against Digitaria sanguinalis (hairy crabgrass) seedlings assessed as plant growth inhibition at 37.5 g ai/ha measured 15 days after compound treatment under greenhouse conditions. The following applies: 360 h, read-out: GI. The format is functional.
The subject of test [15] is Digitaria sanguinalis. Briefly: Post-emergence herbicidal activity against Digitaria sanguinalis (hairy crabgrass) seedlings assessed as plant growth inhibition at 150 g ai/ha measured 15 days after compound treatment under greenhouse conditions. The format is functional. Conditions: 360 h, read-out: GI.
Test [16] concerns Echinochloa crus-galli. Put plainly: Post emergence herbicidal activity against Echinochloa crus-galli (barnyard grass) seedlings assessed as plant growth inhibition at 75 g ai/ha measured 15 days after compound treatment under greenhouse conditions. The format is functional. The following applies: 360 h, read-out: GI.
Test [17] relates to Echinochloa crus-galli. Briefly: Post emergence herbicidal activity against Echinochloa crus-galli (barnyard grass) seedlings assessed as plant growth inhibition at 37.5 g ai/ha measured 15 days after compound treatment under greenhouse conditions. The following applies: 360 h, read-out: GI. The format is functional.
Test [18] relates to Echinochloa crus-galli. Briefly: Post emergence herbicidal activity against Echinochloa crus-galli (barnyard grass) seedlings assessed as plant growth inhibition at 150 g ai/ha measured 15 days after compound treatment under greenhouse conditions. The format is functional. Conditions: 360 h, read-out: GI.
In test [19] the target is T1, Protoporphyrinogen oxidase, chloroplastic (Nicotiana tabacum, UniProt O24163).
T1 sequence (O24163 whole entry): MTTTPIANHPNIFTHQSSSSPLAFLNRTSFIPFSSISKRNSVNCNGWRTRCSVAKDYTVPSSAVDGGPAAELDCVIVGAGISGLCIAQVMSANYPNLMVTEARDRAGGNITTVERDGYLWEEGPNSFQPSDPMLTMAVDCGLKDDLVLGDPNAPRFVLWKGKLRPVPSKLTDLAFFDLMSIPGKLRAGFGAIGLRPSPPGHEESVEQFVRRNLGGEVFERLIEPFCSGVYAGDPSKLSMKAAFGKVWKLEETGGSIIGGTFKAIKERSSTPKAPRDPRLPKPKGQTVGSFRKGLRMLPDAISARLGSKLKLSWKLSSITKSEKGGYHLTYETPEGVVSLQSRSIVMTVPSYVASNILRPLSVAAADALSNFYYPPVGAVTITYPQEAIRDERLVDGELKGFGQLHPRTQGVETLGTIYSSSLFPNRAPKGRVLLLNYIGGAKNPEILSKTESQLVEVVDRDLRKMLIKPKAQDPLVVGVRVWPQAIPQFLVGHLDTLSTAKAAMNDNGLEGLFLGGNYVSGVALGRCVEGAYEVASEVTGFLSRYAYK
Put plainly: Inhibition of Nicotiana tabacum (tobacco) recombinant PPO assessed as protoporphyrin IX formation at room temperature by fluorimetric assay.

Molecules are shown by their SMILES.

For `Cc1nn(-c2cc3nc(SCCC(=O)O)sc3cc2F)c(=O)n1C(F)F`, the inhibition of growth at 75 g/ha in the test with Chenopodium album [1] was at least 90%; with Amaranthus retroflexus [4], at least 90%; with Brassica juncea [7], at least 90%; in the test on Setaria faberi [10], 50%; with Digitaria sanguinalis [13] it was 50%; in the test with Echinochloa crus-galli [16] it was below 50%. Moreover, the inhibition of growth at 37.5 g/ha is 80% with Chenopodium album [2]; 60% in the test with Amaranthus retroflexus [5]; 60% in the test with Brassica juncea [8]; below 50% in the test on Setaria faberi [11]; below 50% in the test with Digitaria sanguinalis [14]; below 50% in the test with Echinochloa crus-galli [17]. For the same compound, the inhibition of growth at 150 g/ha in the test on Chenopodium album [3] was at least 90%; in the test on Amaranthus retroflexus [6], at least 90%; with Brassica juncea [9], at least 90%; with Setaria faberi [12], below 50%; in the test on Digitaria sanguinalis [15], 50%; in the test with Echinochloa crus-galli [18] it was 50%. In [19], the Ki (as a rule, a dissociation constant, usually derived from enzyme kinetics or from competition with a known ligand) stood at 1.67 µM.

Consider `Cc1nn(-c2cc3nc(SC(C)C(=O)O)sc3cc2F)c(=O)n1C(F)F` (stereo unspecified), for which the inhibition of growth at 75 g/ha with Chenopodium album [1] is at least 90%; in the test with Amaranthus retroflexus [4], at least 90%; in the test on Brassica juncea [7], at least 90%; with Setaria faberi [10], 60%; in the test with Digitaria sanguinalis [13], below 50%; with Echinochloa crus-galli [16], 60%. In addition, the inhibition of growth at 37.5 g/ha with Chenopodium album [2] was 50%; in the test on Amaranthus retroflexus [5], at least 90%; with Brassica juncea [8], at least 90%; in the test with Setaria faberi [11], 60%; in the test with Digitaria sanguinalis [14] it was below 50%; in the test on Echinochloa crus-galli [17] it was 60%. For the same compound, the inhibition of growth at 150 g/ha with Chenopodium album [3], in the test with Amaranthus retroflexus [6], with Brassica juncea [9], with Setaria faberi [12], in the test on Digitaria sanguinalis [15] and in the test on Echinochloa crus-galli [18] was at least 90% each time. Besides, the inhibition constant Ki in test [19] was 1.21 µM.

Consider `COC(=O)CSc1nc2cc(-n3nc(C)n(C(F)F)c3=O)c(Cl)cc2s1`, for which the inhibition of growth at 75 g/ha with Chenopodium album [1] is at least 90%; in the test on Amaranthus retroflexus [4], at least 90%; in the test on Brassica juncea [7], 80%; with Setaria faberi [10], 50%; in the test with Digitaria sanguinalis [13], below 50%; with Echinochloa crus-galli [16], 50%. Also, the inhibition of growth at 37.5 g/ha in the test on Chenopodium album [2] is at least 90%; in the test on Amaranthus retroflexus [5], 60%; with Brassica juncea [8] it was 60%; in the test on Setaria faberi [11], 50%; with Digitaria sanguinalis [14], below 50%; in the test on Echinochloa crus-galli [17], 50%. Further, the inhibition of growth at 150 g/ha in the test on Chenopodium album [3] is 60%; with Amaranthus retroflexus [6], at least 90%; in the test on Brassica juncea [9], at least 90%; with Setaria faberi [12] it was at least 90%; in the test with Digitaria sanguinalis [15], at least 90%; in the test on Echinochloa crus-galli [18] it was at least 90%. Also, the inhibitory constant (Ki) in [19] came out at 15.2 µM.

As for `CCOC(=O)Sc1nc2cc(-n3nc(C)n(C(F)F)c3=O)c(F)cc2s1`, the inhibition of growth at 75 g/ha was 60% in the test on Chenopodium album [1]; below 50% with Amaranthus retroflexus [4]; below 50% with Brassica juncea [7]; below 50% in the test with Setaria faberi [10]; below 50% with Digitaria sanguinalis [13]; below 50% in the test with Echinochloa crus-galli [16]. Besides, the inhibition of growth at 37.5 g/ha with Chenopodium album [2], with Amaranthus retroflexus [5], in the test on Brassica juncea [8], in the test on Setaria faberi [11], with Digitaria sanguinalis [14] and in the test with Echinochloa crus-galli [17] was below 50% each time. Besides, the inhibition of growth at 150 g/ha with Chenopodium album [3] is at least 90%; with Amaranthus retroflexus [6], at least 90%; in the test with Brassica juncea [9] it was at least 90%; in the test on Setaria faberi [12], below 50%; in the test with Digitaria sanguinalis [15], 50%; in the test with Echinochloa crus-galli [18] it was 50%. For the same compound, the Ki in [19] was determined as 0.58 µM.
